Data set [1] can be described thus: Cell viability (cytotoxicity), Vero. It is filed as cell-based. Particulars: monkey, Vero cells.
Data set [2] in a line: Cell viability (cytotoxicity), Vero-cNectin-4. It is filed as cell-based. Particulars: monkey, Vero-cNectin-4 cells.
The subject of data set [3] is VSV. It is filed as cell-based, vesicular stomatitis virus. The settings on record: Vero cells.
Data set [4] concerns MeV (Edm). The data set can be described thus: microbe, parasite or virus in culture. Type of data set: cell-based. Particulars: Measles morbillivirus.
The test system of data set [5] is MeV polymerase complex. It is filed as cell-based, measles virus.
For data set [6], the system named is RSV-GFP. The data set can be described thus: microbe, parasite or virus in culture. The settings on record: HEp-2 cells, plaque reduction. Type of data set: cell-based, respiratory syncytial virus.
The nature of data set [7]: Cell viability (cytotoxicity), Bsr-T7. Type of data set: cell-based. The settings on record: hamster, Bsr-T7 cells.
The nature of data set [8]: Cell viability (cytotoxicity), NCI-H358. Type of data set: cell-based. Particulars: human, NCI-H358 cells.
A short description of data set [9]: in vitro. The settings on record: monkey, Vero-cSLAM cells.
Data set [10] deals with attenuated OP-CDV strain (OP^neon/nLucP). The data set can be described thus: microbe, parasite or virus in culture. It is filed as cell-based, canine distemper virus.
Data set [11] relates to PIV-5^neon/nLucP. In words: microbe, parasite or virus in culture. Type of data set: cell-based, parainfluenza virus type 5. Particulars: PIV-5, Vero cells.
For data set [12], the system named is MeV (ICB). The data set can be described thus: microbe, parasite or virus in culture. It is filed as cell-based. The settings on record: Measles morbillivirus, NCI-H358 cells.
A short description of data set [13]: Cell viability (cytotoxicity), P114. Particulars: dog, P114 cells. Type of data set: cell-based, Canine.
The nature of data set [14]: Cell viability (cytotoxicity), HEp-2. It is filed as cell-based. The settings on record: human, HEp-2 cells.
Data set [15] has as its system virions (OP^neon/nLucP). In words: Virucidal effect. The settings on record: 1 h at 4°C, then dilution to noninhibitory concentration, Vero-cSLAM. It is filed as cell-based, canine distemper virus. The procedure:
The virus-compound mixtures were then diluted 10-fold, thereby reaching noninhibitory concentrations. […] Upon inoculation of the diluted mixtures in Vero-cSLAM cells, the viral infectivity was assessed.
OP^neon/nLucP (MOI of 4) was added in a plate containing or not each compound and incubated for 60 min at 4°C. Afterward, the virus and compound mixture was diluted to a noninhibitory drug concentration and added to a monolayer of Vero-cSLAM cells. After 24 h, luminescence was measured using the Nano-Glo live cell assay system (Promega).

The subject of data set [16] is wild-type A75/17-CDV strain (A75^neon). Type of data set: cell-based, canine distemper virus.
Data set [17] addresses membrane-anchored OP-CDV F-protein (Canine distemper virus, UniProt P12569). In words: Heat shock resistance of prefusion F conformation (flow cytometry). The settings on record: heat shock 65°C; compound 3 75 μM, compound 1 10 μM. In general terms: A flow cytometer gives signals particle by particle.
The subject of data set [18] is Vero-cSLAM cells. The data set can be described thus: Cell viability (cytotoxicity), Vero-cSLAM.
Data set [19] can be described thus: Cell viability (cytotoxicity), MDCK. The settings on record: dog, MDCK cells. Type of data set: cell-based, Canine.
In data set [20] the test system is wild-type A75/17-CDV (A75^neon/nLucP). The data set can be described thus: microbe, parasite or virus in culture. Type of data set: cell-based. Particulars: canine distemper virus, Vero-cSLAM cells.
For data set [21], the target named is CDV polymerase complex (Canine distemper virus, UniProt P06940+P24658). The data set can be described thus: cell-based. It is filed as cell-based. Particulars: for effect on minigenome luciferase activity (RdRp complex activity): compound 1 10 μM, compound 3 50 μM, Bsr-T7 cells, 48 h.
CDV polymerase complex, sequence (P24658 whole entry): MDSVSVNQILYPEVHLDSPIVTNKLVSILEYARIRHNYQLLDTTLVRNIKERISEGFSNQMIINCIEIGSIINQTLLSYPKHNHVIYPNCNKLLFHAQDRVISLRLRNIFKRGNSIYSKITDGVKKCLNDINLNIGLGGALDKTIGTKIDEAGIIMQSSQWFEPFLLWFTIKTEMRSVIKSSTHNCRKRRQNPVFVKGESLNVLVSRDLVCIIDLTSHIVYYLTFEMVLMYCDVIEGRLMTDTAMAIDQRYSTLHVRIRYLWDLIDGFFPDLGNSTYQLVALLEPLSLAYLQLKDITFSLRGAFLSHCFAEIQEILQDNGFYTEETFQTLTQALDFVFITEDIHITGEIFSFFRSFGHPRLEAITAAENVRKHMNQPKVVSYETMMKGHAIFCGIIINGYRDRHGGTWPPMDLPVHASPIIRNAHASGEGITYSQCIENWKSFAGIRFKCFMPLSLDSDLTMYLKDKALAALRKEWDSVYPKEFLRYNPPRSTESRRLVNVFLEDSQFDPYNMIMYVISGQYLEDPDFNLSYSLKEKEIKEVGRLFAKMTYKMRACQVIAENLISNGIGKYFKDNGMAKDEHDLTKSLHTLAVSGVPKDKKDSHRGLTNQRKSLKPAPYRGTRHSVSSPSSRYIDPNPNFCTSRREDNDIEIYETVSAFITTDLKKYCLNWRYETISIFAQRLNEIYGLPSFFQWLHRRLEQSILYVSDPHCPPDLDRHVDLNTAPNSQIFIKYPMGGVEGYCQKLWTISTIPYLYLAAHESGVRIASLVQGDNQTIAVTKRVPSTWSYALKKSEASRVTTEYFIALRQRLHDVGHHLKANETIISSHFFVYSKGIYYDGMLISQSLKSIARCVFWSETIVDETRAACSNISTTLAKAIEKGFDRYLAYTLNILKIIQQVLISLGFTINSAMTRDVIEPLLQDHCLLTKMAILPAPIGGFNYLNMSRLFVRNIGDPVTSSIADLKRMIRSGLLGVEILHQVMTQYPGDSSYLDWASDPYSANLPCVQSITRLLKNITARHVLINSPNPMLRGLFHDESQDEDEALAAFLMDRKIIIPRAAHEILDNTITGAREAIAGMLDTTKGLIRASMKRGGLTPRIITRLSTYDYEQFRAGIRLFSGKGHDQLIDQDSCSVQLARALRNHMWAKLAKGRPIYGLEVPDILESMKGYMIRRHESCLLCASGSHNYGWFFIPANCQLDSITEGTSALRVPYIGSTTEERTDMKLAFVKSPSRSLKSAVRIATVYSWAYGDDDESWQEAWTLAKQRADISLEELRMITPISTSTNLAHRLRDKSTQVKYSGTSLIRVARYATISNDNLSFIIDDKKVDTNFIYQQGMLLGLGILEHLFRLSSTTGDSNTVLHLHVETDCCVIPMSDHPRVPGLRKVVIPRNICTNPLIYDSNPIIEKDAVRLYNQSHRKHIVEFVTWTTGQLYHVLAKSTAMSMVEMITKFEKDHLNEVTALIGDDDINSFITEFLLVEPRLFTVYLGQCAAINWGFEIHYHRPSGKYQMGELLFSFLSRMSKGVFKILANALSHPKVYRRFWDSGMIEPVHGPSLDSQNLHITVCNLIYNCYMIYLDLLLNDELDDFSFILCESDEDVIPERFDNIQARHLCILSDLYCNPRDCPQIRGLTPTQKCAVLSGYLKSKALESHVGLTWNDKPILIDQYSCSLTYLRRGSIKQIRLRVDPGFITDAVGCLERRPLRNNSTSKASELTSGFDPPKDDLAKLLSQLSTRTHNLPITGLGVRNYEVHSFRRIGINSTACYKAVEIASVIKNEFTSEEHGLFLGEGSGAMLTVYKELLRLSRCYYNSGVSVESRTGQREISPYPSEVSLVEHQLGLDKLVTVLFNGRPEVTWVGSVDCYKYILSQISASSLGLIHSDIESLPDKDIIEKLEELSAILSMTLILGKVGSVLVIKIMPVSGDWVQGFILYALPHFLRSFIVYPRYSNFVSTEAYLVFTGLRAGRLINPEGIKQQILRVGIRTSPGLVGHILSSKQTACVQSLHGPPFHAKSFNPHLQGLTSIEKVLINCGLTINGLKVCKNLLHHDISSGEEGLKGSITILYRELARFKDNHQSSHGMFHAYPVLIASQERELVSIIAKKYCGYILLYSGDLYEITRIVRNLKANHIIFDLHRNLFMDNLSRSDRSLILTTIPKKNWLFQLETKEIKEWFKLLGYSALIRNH
CDV polymerase complex, sequence (P06940 whole entry): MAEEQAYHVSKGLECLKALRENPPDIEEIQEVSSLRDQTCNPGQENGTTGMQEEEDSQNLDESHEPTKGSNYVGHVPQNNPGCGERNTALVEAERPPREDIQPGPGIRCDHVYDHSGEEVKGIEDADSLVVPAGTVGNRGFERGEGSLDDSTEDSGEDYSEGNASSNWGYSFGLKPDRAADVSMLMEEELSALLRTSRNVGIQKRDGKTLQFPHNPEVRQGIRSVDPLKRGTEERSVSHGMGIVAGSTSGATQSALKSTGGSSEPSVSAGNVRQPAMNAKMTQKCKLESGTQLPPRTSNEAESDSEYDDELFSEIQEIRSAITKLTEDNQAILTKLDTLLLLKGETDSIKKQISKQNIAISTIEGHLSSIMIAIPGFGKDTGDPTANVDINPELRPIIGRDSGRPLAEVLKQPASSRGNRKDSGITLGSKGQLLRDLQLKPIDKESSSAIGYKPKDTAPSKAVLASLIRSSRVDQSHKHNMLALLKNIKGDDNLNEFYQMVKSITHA
Data set [22] relates to Vero-cSLAM cells. The settings on record: 42 h incubation, flow cytometry.
The test system of data set [23] is CDV-induced membrane fusion between effector and target cells. In words: Quantitative cell-to-cell fusion assay. It is filed as cell-based. The settings on record: exclusively at high concentrations. From the text:
It is assumed that small molecules at high concentrations may lead to aggregation effects or nonspecific binding.
Measurement of membrane fusion between effector and target cells in presence of increasing concentration of either compound 3 or 1. […] Download FIG S4, TIF file, 3.0 MB.

Data set [24] has as its system OP^neon/nLucP. In words: Time-of-addition assay. Type of data set: cell-based, canine distemper virus. Particulars: 10 μM, compounds added after 20 h of infection, readout 48 h. As to the method: To this end, Vero-cSLAM cells were treated with compound 1 at the time of infection or at distinct time points postinfection. In this set of experiments, two previously characterized compounds (compound 3 and ERDRP-0519 [Fig. 1A]) targeting two distinct stages of the viral life cycle (entry and replication, respectively) were added as controls.
Vero-cSLAM cells (96-well plate format) were infected with OP^neon/nLucP at an MOI of 0.04, in the presence of compound 3G (final concentration, 30 μM), ERDRP-0519 (final concentration, 10 μM), or ZHAWO9045 (final concentration 10 μM) added at the indicated time points. Control cells were infected in the presence of equal amounts of DMSO. At 48 h postinfection, luminescence was measured using the Nano-Glo live cell assay system (Promega).

In data set [25] the test system is rNiV-EGFP. In words: microbe, parasite or virus in culture. Type of data set: cell-based, Nipah virus. The settings on record: Henipavirus nipahense.
Data set [26] can be described thus: Cell viability (cytotoxicity), PGSA745-EFNB2. It is filed as cell-based. The settings on record: hamster, PGSA745-EFNB2 cells.
The mark [27] stands for this setting: human respiratory syncytial virus, HEp-2, RSV.
Where [28] appears, read: canine distemper virus, 24 h, read-out: IC50 (CDV), Table S5, full list, Vero-cSLAM, CDV OP^neon/nLuc, 24 h postinfection, interval in brackets.
[29] abbreviates: canine distemper virus, BSR-T7, in Mesocricetus auratus, CDV (OP), Bsr-T7 cells (hamster).
[30] abbreviates: canine distemper virus, CDV (OP), Vero-cSLAM cells.
Where [31] appears, read: canine distemper virus, MDCK, in Canis lupus familiaris, CDV (OP), MDCK cells (canine).
Setting [32] is: canine distemper virus, Vero, CDV (OP), Vero cells.
Where [33] appears, read: canine distemper virus, in Canis lupus familiaris, CDV (OP), P114 cells (canine).
The mark [34] stands for this setting: canine distemper virus, 24 h, Table S3, aromatic heterocycles and N-alkylated aminothiazoles, Vero-cSLAM, CDV OP^neon/nLuc, 24 h postinfection, interval in brackets.

The structures appear in SMILES notation. Like-named read-outs stand apart in the source and are kept apart here.

For orientation: CC50 means the concentration at which the toxic effect on the cells reaches its halfway point. Lower therefore signals greater toxicity to the cells. The term IC50 denotes the midpoint of a concentration-inhibition curve. The term inhibition denotes the change of the read-out against control, counted positive when it falls.

membrane-anchored OP-CDV F-protein, sequence (P12569 136-224): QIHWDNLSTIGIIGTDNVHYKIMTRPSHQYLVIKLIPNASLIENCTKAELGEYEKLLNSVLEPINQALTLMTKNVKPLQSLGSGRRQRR
membrane-anchored OP-CDV F-protein, sequence (P12569 225-662): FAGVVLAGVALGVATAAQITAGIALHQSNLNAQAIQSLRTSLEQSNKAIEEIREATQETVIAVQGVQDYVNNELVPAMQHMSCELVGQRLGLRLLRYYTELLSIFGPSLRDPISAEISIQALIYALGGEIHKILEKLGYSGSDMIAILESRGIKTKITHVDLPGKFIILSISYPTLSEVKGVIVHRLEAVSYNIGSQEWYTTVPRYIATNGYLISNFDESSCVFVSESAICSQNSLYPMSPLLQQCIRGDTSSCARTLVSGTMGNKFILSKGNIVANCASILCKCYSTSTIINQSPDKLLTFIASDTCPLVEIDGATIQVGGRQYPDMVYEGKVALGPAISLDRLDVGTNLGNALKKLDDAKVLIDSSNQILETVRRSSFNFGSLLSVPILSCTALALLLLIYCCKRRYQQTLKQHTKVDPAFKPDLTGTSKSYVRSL

For `CC1(C)Cc2cccc(OCC(=O)Nc3nc4ccccc4s3)c2O1` [compound 1], the CC50 in [1] stood at 46 µM; in [2], 43 µM; in data set [7] it was 50 µM; in [8], 50 µM; in [9], 52 µM; in data set [13], 57 µM. For the same compound, the values for the CC50 in [14], in data set [18] and in [19] were 110 µM, about 50 µM and 99 µM, respectively. Also, in [3], the “antiviral activity against VSV” value is given as “did not display any activity”. For the same compound, the IC50 in data set [4] (NCI-H358) is 0.52 µM; in [4] (Vero), 0.25 µM; in [6] (RSV) it was 5.9 µM; in [6] (setting [27]), about 6 µM; in data set [10] (CDV (OP), Bsr-T7 cells (hamster)), 7.3 µM; in data set [10] (setting [28]), 0.53 µM. Moreover, the IC50 was 0.52 µM in [10] (canine distemper virus, 24 h, Vero-cSLAM, CDV OP^neon/nLuc, luciferase 24 h postinfection); about 7 µM in [10] (setting [29]); 0.43 µM in data set [10] (canine distemper virus, CDV (OP), Vero-cNectin-4 cells); about 0.45 µM in data set [10] (setting [30]); 30 µM in [10] (setting [31]); 0.4 µM in data set [10] (setting [32]). For the same compound, the IC50 in data set [10] (setting [33]) was 2.6 µM; in [10] (canine distemper virus, read-out: IC50 values, summary for MeV and CDV) it was 0.2 to 0.7 µM; in data set [11] it was 7.2 µM; in [11] (parainfluenza virus 5, Vero), about 7 µM; in data set [12], 0.37 µM; in data set [20], about 0.7 µM. For the same compound, in data set [5], the “effect on MeV polymerase activity (minigenome)” value is listed as “inhibition of MeV polymerase activity was recorded”. In data set [15], the “inhibitory activity after 10-fold dilution of virus-compound mixture (virucidal activity)” value was “entirely lost its inhibitory activity”. Moreover, the “emergence of viral resistance” value in [16] (83-day study, four separate replicates) is “did not induce any detectable viral resistance”. Moreover, in data set [17], the “stabilizing effect on prefusion F-trimers” value is on record as “did not”. In addition, the inhibition at 10 µM in data set [21] (BSR-T7, read-out: inhibition of polymerase activity in the minigenome assay) was about 50%. In addition, in [21], the “effect on minigenome luciferase activity (RdRp complex activity)” value is recorded as “sufficient to significantly inhibit the luciferase activity”. For the same compound, the “concentration at which impact on cell cycle progression (G1 arrest) is statistically significant” value in data set [22] was determined as 30 µM. Further, the “effect on membrane fusion activity” value in data set [23] was “enhance fusion activity”. The time-of-addition inhibition profile result in data set [24] is “acted like ERDRP-0519”.
For `CN(C(=O)COc1cccc2c1OC(C)(C)C2)c1nc2c(s1)CCCC2` [compound 2], the CC50 came out at 52 µM in data set [1]; 54 µM in data set [9]; 65 µM in data set [13]; 51 µM in data set [14]; 80 µM in data set [26]; 87 µM in data set [19]. Moreover, the IC50 in data set [6] (setting [27]) is 0.031 µM; in data set [25] it was 0.08 µM; in [10] (Vero-cSLAM, CDV OP^neon/nLuc, luciferase 24 h postinfection), “single-digit nanomolar”; in data set [10] (setting [34]) it was 0.0084 µM; in data set [10] (setting [29]) it was 0.012 µM; in data set [10] (setting [30]), 0.0026 µM. Moreover, the IC50 in [10] (setting [31]) came to 0.065 µM; in data set [10] (setting [32]), 0.003 µM; in [10] (setting [33]) it was 0.019 µM; in [11] (parainfluenza virus 5, Vero), 0.015 µM; in [20], 0.0032 µM. For the same compound, the “concentration at which impact on cell cycle progression (G1 arrest) is statistically significant” value in data set [22] turned out to be 1 µM.
In [10] (setting [34]), `C#CCCCN(C(=O)COc1cccc2c1OC(C)(C)C2)c1nc2ccccc2s1` [compound 23] displayed an IC50 of 0.27 µM.
Consider `Cn1nc(C(F)(F)F)cc1C(=O)Nc1ccc(S(=O)(=O)N2CCCC[C@H]2CCN2CCOCC2)cc1` [ERDRP-0519, reference compound], for which, in [16] (stepwise adaptation of A75/17-CDV), the “tolerated dose at the end of adaptation” value was at least 30 µM.
`N#Cc1cccc(NC(=O)Cc2ccccc2)c1` [compound 3, reference compound] gave a CC50 in [9] of 130 µM. In addition, the results for the IC50 in [10] (setting [28]), in data set [10] (setting [30]) and in data set [20] were 26 µM, 8 µM and 6 µM, respectively. Besides, in data set [15], the “inhibitory activity after 10-fold dilution of virus-compound mixture (virucidal activity)” value is on record as “still efficiently prevented viral infectivity even after the dilution step”. For the same compound, in [17], the “stabilizing effect on prefusion F-trimers” value is “strong stabilizing effect”. Moreover, the “effect on minigenome luciferase activity (RdRp complex activity)” value in data set [21] was “luciferase activity remained similar to that for vehicle”.
